Measured values reported in publication PMC4664966, “Discovery and characterization of novel inhibitors of the sodium-coupled citrate transporter (NaCT or SLC13A5)” (Scientific Reports, 2015).

How the values were obtained:
[1] = biological target: Proto-oncogene tyrosine-protein kinase (SRC) (Homo sapiens, UniProt P12931); assay: Selectivity data (Table S1); type: biochemical
[2] = Genetic toxicity assays
[3] = biological target: Monoacylglycerol acyltransferase 2 (MGAT2) (Homo sapiens, UniProt Q3SYC2); assay: Selectivity data (Table S1); type: biochemical
[4] = biological target: Cyclooxygenase 2 (prostaglandin endoperoxide synthase 2) (Homo sapiens, UniProt P35354); assay: Selectivity data (Table S1); type: biochemical
[5] = biological target: Muscarinic acetylcholine receptor 1 (M1) (Homo sapiens, UniProt P11229); assay: Selectivity data (Table S1); type: binding
Chain of Muscarinic acetylcholine receptor 1 (M1) (P11229 whole entry): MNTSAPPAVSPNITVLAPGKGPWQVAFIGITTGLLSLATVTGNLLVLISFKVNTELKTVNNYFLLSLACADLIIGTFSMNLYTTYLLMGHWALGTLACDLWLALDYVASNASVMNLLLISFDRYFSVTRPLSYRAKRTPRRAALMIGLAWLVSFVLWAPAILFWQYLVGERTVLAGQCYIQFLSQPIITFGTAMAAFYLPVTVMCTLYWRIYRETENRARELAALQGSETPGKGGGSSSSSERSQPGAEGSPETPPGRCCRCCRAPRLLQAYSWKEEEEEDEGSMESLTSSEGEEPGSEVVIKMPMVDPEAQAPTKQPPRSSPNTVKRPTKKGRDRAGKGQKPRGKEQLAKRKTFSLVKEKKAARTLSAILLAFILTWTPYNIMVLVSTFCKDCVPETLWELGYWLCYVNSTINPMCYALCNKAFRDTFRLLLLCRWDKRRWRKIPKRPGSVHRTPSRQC

[6] = biological target: Serotonin receptor 3 (5-HT3) (Homo sapiens, UniProt P46098); assay: Selectivity data (Table S1); type: binding
[7] = biological target: Serotonin receptor 2B (5-HT2B) (Homo sapiens, UniProt P41595); assay: Selectivity data (Table S1); type: binding
[8] = biological target: Monoacylglycerol acyltransferase 1 (MGAT1) (Homo sapiens, UniProt Q96PD6); assay: Selectivity data (Table S1); type: biochemical
Chain of Monoacylglycerol acyltransferase 1 (MGAT1) (Q96PD6 whole entry): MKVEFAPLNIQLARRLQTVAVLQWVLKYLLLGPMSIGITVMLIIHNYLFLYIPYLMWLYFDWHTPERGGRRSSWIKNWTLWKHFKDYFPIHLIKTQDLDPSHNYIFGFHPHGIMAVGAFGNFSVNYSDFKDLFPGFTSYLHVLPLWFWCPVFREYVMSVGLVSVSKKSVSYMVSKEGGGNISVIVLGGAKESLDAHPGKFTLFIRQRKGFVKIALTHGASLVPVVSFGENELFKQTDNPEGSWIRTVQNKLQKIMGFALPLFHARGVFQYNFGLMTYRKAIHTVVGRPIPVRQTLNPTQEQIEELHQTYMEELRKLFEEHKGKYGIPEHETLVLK

[9] = biological target: Phosphodiesterase 3A1 (PDE3A1) (Homo sapiens, UniProt Q14432); assay: Selectivity data (Table S1); type: biochemical
Chain of Phosphodiesterase 3A1 (PDE3A1) (Q14432 whole entry): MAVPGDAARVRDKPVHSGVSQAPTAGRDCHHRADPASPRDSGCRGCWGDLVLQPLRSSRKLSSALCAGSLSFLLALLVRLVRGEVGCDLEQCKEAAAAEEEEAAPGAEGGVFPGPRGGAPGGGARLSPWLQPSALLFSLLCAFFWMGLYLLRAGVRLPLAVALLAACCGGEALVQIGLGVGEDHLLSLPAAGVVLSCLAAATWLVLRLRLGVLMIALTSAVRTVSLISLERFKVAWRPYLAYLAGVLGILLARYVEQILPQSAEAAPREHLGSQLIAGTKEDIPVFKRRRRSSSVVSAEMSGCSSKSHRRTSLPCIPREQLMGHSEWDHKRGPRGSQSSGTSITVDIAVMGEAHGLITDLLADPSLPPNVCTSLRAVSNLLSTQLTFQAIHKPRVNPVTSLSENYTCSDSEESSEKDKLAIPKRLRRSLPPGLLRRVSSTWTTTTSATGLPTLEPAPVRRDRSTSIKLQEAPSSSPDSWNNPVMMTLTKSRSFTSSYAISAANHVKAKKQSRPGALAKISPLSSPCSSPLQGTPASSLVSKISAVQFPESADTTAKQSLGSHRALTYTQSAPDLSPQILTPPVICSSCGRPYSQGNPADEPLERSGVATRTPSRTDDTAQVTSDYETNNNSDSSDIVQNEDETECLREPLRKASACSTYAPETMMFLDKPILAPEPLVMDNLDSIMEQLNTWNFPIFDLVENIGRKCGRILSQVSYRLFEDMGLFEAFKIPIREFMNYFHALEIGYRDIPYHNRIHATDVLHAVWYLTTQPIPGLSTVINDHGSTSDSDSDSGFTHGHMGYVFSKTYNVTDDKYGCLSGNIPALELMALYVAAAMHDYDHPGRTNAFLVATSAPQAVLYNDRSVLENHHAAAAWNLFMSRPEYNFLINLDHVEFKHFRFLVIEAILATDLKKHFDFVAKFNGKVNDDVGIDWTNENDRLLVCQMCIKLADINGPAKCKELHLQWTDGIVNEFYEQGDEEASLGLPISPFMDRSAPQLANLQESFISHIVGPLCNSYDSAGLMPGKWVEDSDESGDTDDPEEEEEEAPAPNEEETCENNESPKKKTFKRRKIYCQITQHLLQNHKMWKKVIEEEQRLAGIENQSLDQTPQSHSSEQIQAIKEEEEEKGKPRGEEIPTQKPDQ

[10] = biological target: Histamine receptor 2 (H2) (Homo sapiens, UniProt P25021); assay: Selectivity data (Table S1); type: binding
Chain of Histamine receptor 2 (H2) (P25021 whole entry): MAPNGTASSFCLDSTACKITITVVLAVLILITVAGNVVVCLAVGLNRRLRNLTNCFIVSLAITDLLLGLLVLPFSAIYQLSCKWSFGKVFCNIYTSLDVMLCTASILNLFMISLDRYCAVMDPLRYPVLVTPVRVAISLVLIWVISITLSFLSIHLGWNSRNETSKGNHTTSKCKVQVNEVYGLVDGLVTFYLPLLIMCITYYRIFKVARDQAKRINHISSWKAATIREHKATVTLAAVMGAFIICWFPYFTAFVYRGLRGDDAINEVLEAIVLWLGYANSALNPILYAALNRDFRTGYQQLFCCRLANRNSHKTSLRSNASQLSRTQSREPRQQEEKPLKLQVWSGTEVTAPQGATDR

[11] = Plasma fraction unbound; type: in vitro ADME; settings: mouse, read-out: mouse plasma fu
[12] = biological target: Muscarinic acetylcholine receptor 2 (M2) (Homo sapiens, UniProt P08172); assay: Selectivity data (Table S1); type: binding
[13] = biological target: Adenosine receptor A1 (ADORA1) (Homo sapiens, UniProt P30542); assay: Selectivity data (Table S1); type: binding
Chain of Adenosine receptor A1 (ADORA1) (P30542 whole entry): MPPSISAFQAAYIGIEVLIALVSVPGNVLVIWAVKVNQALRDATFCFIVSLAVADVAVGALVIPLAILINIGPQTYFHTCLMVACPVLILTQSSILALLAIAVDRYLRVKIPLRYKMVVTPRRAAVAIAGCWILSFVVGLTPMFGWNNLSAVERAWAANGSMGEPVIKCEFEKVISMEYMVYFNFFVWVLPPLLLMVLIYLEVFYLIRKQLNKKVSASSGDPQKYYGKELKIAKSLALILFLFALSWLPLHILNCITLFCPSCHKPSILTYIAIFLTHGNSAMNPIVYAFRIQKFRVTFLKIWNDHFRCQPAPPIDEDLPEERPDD

[14] = biological target: Endothelin (ETA) (Homo sapiens, UniProt P25101); assay: Selectivity data (Table S1); type: binding
Chain of Endothelin (ETA) (P25101 21-427): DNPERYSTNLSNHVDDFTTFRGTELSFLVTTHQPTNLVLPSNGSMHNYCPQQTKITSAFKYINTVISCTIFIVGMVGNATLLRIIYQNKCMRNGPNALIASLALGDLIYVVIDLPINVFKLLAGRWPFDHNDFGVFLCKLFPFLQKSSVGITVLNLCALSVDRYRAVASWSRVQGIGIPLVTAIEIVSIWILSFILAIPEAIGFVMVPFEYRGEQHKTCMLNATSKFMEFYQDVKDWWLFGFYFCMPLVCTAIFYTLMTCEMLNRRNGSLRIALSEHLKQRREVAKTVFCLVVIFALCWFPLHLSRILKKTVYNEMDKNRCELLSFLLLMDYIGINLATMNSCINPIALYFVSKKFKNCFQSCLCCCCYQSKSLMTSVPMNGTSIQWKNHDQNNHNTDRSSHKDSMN

[15] = biological target: Angiotensin-converting enzyme 1 (ACE1) (Homo sapiens, UniProt P12821); assay: Selectivity data (Table S1); type: biochemical
[16] = biological target: Cholecystokinin receptor B (CCKBR) (Homo sapiens, UniProt P32239); assay: Selectivity data (Table S1); type: binding
Chain of Cholecystokinin receptor B (CCKBR) (P32239 whole entry): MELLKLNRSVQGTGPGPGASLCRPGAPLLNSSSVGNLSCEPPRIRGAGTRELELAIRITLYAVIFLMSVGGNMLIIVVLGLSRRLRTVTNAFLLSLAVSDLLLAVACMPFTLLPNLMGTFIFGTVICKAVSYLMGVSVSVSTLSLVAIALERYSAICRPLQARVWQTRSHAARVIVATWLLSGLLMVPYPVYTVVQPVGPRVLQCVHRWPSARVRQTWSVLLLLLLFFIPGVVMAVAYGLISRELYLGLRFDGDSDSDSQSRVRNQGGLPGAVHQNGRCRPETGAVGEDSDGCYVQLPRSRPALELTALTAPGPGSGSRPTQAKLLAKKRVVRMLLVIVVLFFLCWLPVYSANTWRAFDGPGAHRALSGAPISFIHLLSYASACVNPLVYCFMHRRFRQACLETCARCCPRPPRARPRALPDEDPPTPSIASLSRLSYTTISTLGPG

[17] = biological target: CYP2D6 (Homo sapiens, UniProt P10635); assay: Selectivity data (Table S1); type: in vitro ADME; settings: 3 µM
[18] = biological target: Cytochrome P450 2D6 (CYP2D6) (Homo sapiens, UniProt P10635); assay: Selectivity data (Table S1); type: in vitro ADME
[19] = biological target: CYP1A2 (Homo sapiens, UniProt P05177); assay: Selectivity data (Table S1); type: in vitro ADME; settings: 3 µM
[20] = biological target: Cytochrome P450 1A2 (CYP1A2) (Homo sapiens, UniProt P05177); assay: Selectivity data (Table S1); type: in vitro ADME
[21] = biological target: Diacylglycerol acyltransferase 1 (DGAT1) (Homo sapiens, UniProt O75907); assay: Selectivity data (Table S1); type: biochemical
Chain of Diacylglycerol acyltransferase 1 (DGAT1) (O75907 whole entry, species assumed): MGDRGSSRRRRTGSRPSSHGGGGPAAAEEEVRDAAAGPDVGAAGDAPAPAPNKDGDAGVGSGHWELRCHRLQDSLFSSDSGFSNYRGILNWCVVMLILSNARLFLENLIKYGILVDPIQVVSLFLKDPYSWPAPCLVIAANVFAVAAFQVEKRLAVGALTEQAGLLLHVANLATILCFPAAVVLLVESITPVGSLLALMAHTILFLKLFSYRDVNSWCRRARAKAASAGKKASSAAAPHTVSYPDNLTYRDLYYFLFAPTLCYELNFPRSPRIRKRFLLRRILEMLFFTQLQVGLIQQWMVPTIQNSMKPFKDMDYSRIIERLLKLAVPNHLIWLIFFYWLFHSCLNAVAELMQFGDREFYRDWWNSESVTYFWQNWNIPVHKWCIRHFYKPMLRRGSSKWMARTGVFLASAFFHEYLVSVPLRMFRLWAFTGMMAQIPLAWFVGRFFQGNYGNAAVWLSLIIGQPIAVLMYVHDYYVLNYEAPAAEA

[22] = biological target: Phosphodiesterase 5A1 (PDE5A1) (Homo sapiens, UniProt O76074); assay: Selectivity data (Table S1); type: biochemical
[23] = biological target: Muscarinic acetylcholine receptor 3 (M3) (Homo sapiens, UniProt P20309); assay: Selectivity data (Table S1); type: binding
[24] = biological target: Serotonin receptor 2A (5-HT2A) (Homo sapiens, UniProt P28223); assay: Selectivity data (Table S1); type: binding
Chain of Serotonin receptor 2A (5-HT2A) (P28223 whole entry): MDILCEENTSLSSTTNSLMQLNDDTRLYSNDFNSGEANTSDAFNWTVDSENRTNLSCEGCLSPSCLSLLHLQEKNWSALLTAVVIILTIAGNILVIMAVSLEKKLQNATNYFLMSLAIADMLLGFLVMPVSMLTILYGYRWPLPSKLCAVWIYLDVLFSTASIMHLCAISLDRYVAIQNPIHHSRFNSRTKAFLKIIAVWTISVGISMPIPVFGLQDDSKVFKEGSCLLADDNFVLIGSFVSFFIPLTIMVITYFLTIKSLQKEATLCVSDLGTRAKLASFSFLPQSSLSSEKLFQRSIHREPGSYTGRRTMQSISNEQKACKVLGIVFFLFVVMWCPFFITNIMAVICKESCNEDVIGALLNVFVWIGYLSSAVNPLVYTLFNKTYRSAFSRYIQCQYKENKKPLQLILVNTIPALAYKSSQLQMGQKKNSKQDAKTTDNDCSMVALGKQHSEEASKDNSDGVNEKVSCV

[25] = system: HEKNaCT cells; assay: OCR and ECAR measurements in HEKNaCT cells incubated with citrate (Seahorse); type: cell-based, human; settings: 30 μM compound
Protocol: HEKNaCT cells were plated at 12,000 cells/well onto a poly-d-lysine coated XF96 plate (Sigma, Seahorse Biosciences). Cells were plated in culture media containing HG DMEM, 10% FBS, 2 mM glutamine, 1 mM pyruvate, 0.5 mg/mL Geneticin, and 1% penicillin/streptomycin (Life Technologies) and incubated overnight at 37 °C. The following day, the media was changed to Seahorse Biosciences assay medium (Seahorse Biosciences) supplemented with 10 mM glucose and 2 mM pyruvate (Sigma). The plate was pre-incubated for 1 hour in a 37 °C air incubator. […]

[26] = biological target: Monoamine oxidase A (MAOA) (Homo sapiens, UniProt P21397); assay: Selectivity data (Table S1); type: biochemical
[27] = Passive permeability, MDCK-LE cell monolayer; type: in vitro ADME; settings: dog; MDCK-LE cell monolayer; read-out: Papp (apparent passive permeability)
Protocol: Passive permeability was assessed using MDCK-LE cell monolayer as described previously in Di et al., (2011)[44].

[28] = biological target: ATP-binding cassette, sub-family B, member 11 (ABCB11) (Homo sapiens, UniProt O95342); assay: Selectivity data (Table S1)
[29] = Intra-/extracellular unbound concentration ratio (Kpuu) in human hepatocytes; type: in vitro ADME; settings: cryopreserved hepatocytes, ratio of free intracellular and media concentration after 1 h incubation at 1 μM, geometric mean of 3 replicates ± SD
Protocol: (§1) kpuu values were determined by measuring total cell and media concentrations corrected for their respective fraction unbound. Detailed methods to determine intra- and extracellular concentrations of compound in the HEKNaCT cells and human hepatocytes will be the subject of a separate manuscript that is under preparation. […]
(§2) Intra- and extracellular concentrations of compound in cellular assays. kpuu values were determined by measuring total cell and media concentrations corrected for their respective […]
(§3) fraction unbound. […]
(§4) The solution was heated to reflux until the total volume was reduced to ~25 mL.
(§5) Hexane (25 mL) was added and the mixture was brought back to reflux than allowed to slowly cool to room temperature. After standing at room temperature for 16 h, the resulting suspension was filtered and dried under high vacuum to yield (S)-2-(4-(tert-butyl)phenethyl)-2-hydroxysuccinic acid (3) as a white solid. The filtrate was allowed to stand at room temperature for 4 days. The solvent evaporated to ~15 mL and large, colorless crystals formed.
(§6) X-ray analysis. Data collection was performed on a Bruker APEX diffractometer at room temperature. Data collection consisted of 3 omega scans and low angle and three at high angle; each with 0.5 step. In addition, 2 phi scans were collected to improve the quality of the […]

[30] = Intra-/extracellular unbound concentration ratio (Kpuu) in HEKNaCT cells; type: in vitro ADME; settings: human, ratio of free intracellular and media concentration after 1 h incubation at 1 μM, geometric mean of 3 replicates ± SD
Protocol: as §1, §2, §3, §4, §5, §6

Chain of Proto-oncogene tyrosine-protein kinase (SRC) (P12931 whole entry): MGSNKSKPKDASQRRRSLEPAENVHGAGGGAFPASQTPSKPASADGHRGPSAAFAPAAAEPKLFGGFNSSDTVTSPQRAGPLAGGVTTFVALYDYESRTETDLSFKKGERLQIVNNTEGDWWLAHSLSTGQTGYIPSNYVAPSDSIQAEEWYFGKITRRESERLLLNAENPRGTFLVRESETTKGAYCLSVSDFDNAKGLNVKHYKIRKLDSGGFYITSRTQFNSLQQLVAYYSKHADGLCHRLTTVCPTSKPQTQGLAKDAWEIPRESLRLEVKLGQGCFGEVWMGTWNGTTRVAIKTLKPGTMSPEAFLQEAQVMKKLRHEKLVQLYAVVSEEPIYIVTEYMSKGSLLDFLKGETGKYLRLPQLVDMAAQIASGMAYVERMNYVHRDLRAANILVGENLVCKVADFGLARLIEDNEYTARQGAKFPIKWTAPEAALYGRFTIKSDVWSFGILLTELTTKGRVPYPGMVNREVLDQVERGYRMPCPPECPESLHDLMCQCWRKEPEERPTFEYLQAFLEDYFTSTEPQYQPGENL

Structure (SMILES): CC(C)(C)c1ccc(CC[C@@](O)(CC(=O)O)C(=O)O)cc1 [Compound 2]
- inhibition at 100 µM [1]: < 10%
- genetic toxicity [2]: negative
- IC50 [3]: > 50 µM
- inhibition at 100 µM [4]: 22%
- inhibition at 100 µM [5]: < 10%
- inhibition at 100 µM [6]: < 10%
- inhibition at 100 µM [7]: < 10%
- IC50 [8]: > 50 µM
- IC50 [9]: > 30 µM
- inhibition at 100 µM [10]: < 10%
- fraction unbound [11]: 0.26
- inhibition at 100 µM [12]: < 10%
- inhibition at 100 µM [13]: < 10%
- inhibition at 100 µM [14]: < 10%
- inhibition at 100 µM [15]: < 10%
- inhibition at 100 µM [16]: < 10%
- inhibition at 3 µM [17]: < 10%
- interaction/inhibition of CYP2D6 [18]: no significant interaction/inhibition
- inhibition at 3 µM [19]: < 10%
- interaction/inhibition of CYP1A2 [20]: no significant interaction/inhibition
- IC50 [21]: > 50 µM
- IC50 [22]: > 30 µM
- inhibition at 100 µM [23]: < 10%
- inhibition at 100 µM [24]: < 10%
- effect on citrate induced increase in oxygen consumption rate (OCR) [25]: prevented citrate induced increase in mitochondrial respiration
- effect on citrate suppressed extracellular acidification rate (ECAR) ([25]; citrate): restored
- inhibition at 100 µM [26]: < 10%
- Papp [27]: 14 nm/s
- IC50 [28]: > 200 µM
- Kp uu at 1 h, 1 µM [29]: 4.8 ± 0.5
- Kp uu at 1 h, 1 µM [30]: 29 ± 5
